The results in this text go back to patent US10047113B2, “Feruloyl-CoA:monolignol transferase” (Wisconsin Alumni Research Foundation (WARF), priority 2010, dated 2018).

In data set [1] the test system is feruloyl-CoA:monolignol transferase (FMT). The data set is described as follows: Feruloyl-CoA:monolignol transferase (FMT) enzymatic assay, UPLC detection of product. The format is biochemical, Angelica sinensis. The note with it: purified recombinant enzyme; for product formation from acyl-CoA substrate: coniferyl alcohol as acceptor, FIGS. 2, 6, 7; for FMT enzyme activity with monolignol as substrate: feruloyl-CoA as acyl donor, FIGS. 2, 4, 5. As to the method:
The feruloyl-CoA, p-coumaroyl-CoA, and caffeoyl-CoA substrates used in the FMT assay were enzymatically synthesized using the tobacco 4-coumarate-CoA-ligase (4CL) with a c-terminal HIS tag in pCRT7/CT TOPO, provided by Eran Pichersky. Following a method modified from Beuerle and Pichersky (Anal. Biochem. 302(2): 305-12 (2001)) 3.3 mg of ferulic acid, coumaric acid or caffeic acid, 2 mg coenzyme A, and 6.9 mg ATP were added to 50 mM Tris-hydrochloride pH 8 and 2.5 mM magnesium chloride in a final volume of 10 ml. The reaction was started by adding 0.25 mg 4CL, protein purified as described by the method of Beurerle and Pichershy. After a five-hour incubation at room temperature, additional 6.9 mg ATP, 2 mg coenzyme A, and 0.25 mg purified 4CL were added and the reaction was incubated overnight. The CoA esters were purified on an SPE cartridge as described in Beuerle and Pichersky (2001).
(§1) The FMT activity assay contained 100 mM MOPS pH 6.8, 1 mM dithiothreitol (DTT), 1 mM feruloyl-CoA, 1 mM coniferyl alcohol, 3.9 μg of purified FMT protein and deionized water to a volume of 50 μL. After a 30-minute incubation, 1 μL of 10 M hydrochloric acid was added to stop the reaction. Because the product synthesized in the reaction, coniferyl ferulate (CAFA), is insoluble, 50 μL of methanol was added to solubilize the CAFA. Prior to UPLC, protein and insoluble material were removed by filtering through an Amicon Ultracel 10K membrane filter (Millipore). The flow-through was analyzed using an Acquity Ultra Performance LC with an Acquity UPLC BEH C18 1.7 μm 2.1×100 mm column and the Acquity Console and Empower 2 Software, all from Waters Corporation. The solvents used in this method were solvent A, 0.1% trifluoroacetic acid, and solvent B, 100% acetonitrile. Samples were analyzed using the following gradient conditions, 13% B, for 5 minutes, 1 minute linear gradient to 42% B, held for 4 minutes, 1 minute linear gradient to 100% B, held for 1 minutes and 3 minutes at 13% B with a flow rate of 0.3 ml/minute. This method was then used to analyze a 10 μL injection of each assay reaction; standards for each of the substrates along with chemically synthesized CAFA were used to determine retention times for each compound.
Purified recombinant enzyme was assayed for FMT activity using a reaction mixture containing 2 mM coniferyl alcohol, […], 100 mM HEPES pH 7.4 and 1 mM DTT. The second most abundant BAHD acyltransferase gene when incubated with Coniferyl alcohol and feruloyl-CoA produced a compound with the retention time of authentic coniferyl ferulate (CAFA) (FIG. 2). […] The addition of methanol to 50% after stopping the enzyme with acid was required to analyze the product by UPLC. The insolubility of the product made partial purification easy as the product was separated from the substrates by centrifugation.
This partial purified product was analyzed by NMR. The identity of the product as CAFA was confirmed by ^1H-NMR (FIG. 3). The enzyme was tested with p-coumaryl alcohol (FIG. 4) and sinapyl alcohol (FIG. 5) in addition to coniferyl alcohol (FIG. 2). The enzyme is active with all three monolignols, i.e., p-coumaryl alcohol, coniferyl alcohol and sinapyl alcohol. The enzyme was tested with p-coumaroyl-CoA (FIG. 6) and caffeoyl-CoA (FIG. 7) as well as feruloyl-CoA (FIG. 2).

Data set [2] is described as follows: Solubility of the FMT reaction product. The format is physicochemical. Here is the method: as §1, with “compound. […]” for “compound.”

For the compound `CC(C)(COP(=O)(O)OP(=O)(O)OC[C@H]1O[C@@H](n2cnc3c(N)ncnc32)[C@H](O)[C@@H]1OP(=O)(O)O)[C@@H](O)C(=O)NCCC(=O)NCCSC(=O)/C=C/c1ccc(O)cc1` [p-coumaroyl-CoA], in data set [1], the “product formation from acyl-CoA substrate” value (from here on “product formation”) is “very little product is produced”.

In the case of `COc1cc(/C=C/C(=O)SCCNC(=O)CCNC(=O)[C@H](O)C(C)(C)COP(=O)(O)OP(=O)(O)OC[C@H]2O[C@@H](n3cnc4c(N)ncnc43)[C@H](O)[C@@H]2OP(=O)(O)O)ccc1O` [feruloyl-CoA], in data set [1], the “product formation” value is listed as “substantial product is formed”.

Turning to `CC(C)(COP(=O)(O)OP(=O)(O)OC[C@H]1O[C@@H](n2cnc3c(N)ncnc32)[C@H](O)[C@@H]1OP(=O)(O)O)[C@@H](O)C(=O)NCCC(=O)NCCSC(=O)/C=C/c1ccc(O)c(O)c1` [caffeoyl-CoA], in data set [1], the “product formation” value is reported as “very little product is produced”.

On to `COc1cc(/C=C/CO)ccc1O` [coniferyl alcohol], for which the “FMT enzyme activity with monolignol as substrate” value (from here on “FMT enzyme activity”) in data set [1] was “active”.

`COc1cc(/C=C/CO)cc(OC)c1O` [sinapyl alcohol]: the “FMT enzyme activity” value in data set [1] was “active”.

As to `OC/C=C/c1ccc(O)cc1` [p-coumaryl alcohol], in data set [1], the “FMT enzyme activity” value is “active”.

Turning to `COc1cc(/C=C/COC(=O)/C=C/c2ccc(O)c(OC)c2)ccc1O` [coniferyl ferulate], the “solubility in assay reaction mixture” value in data set [2] (FMT activity assay, 100 mM MOPS pH 6.8, methanol added to solubilize) is on record as “insoluble”. Besides, the solubility in water result in data set [2] (product of enzyme reaction, methanol to 50% needed for UPLC) was “mostly insoluble in water”.
